In one test the target is T1, CYP3A2 (Rattus norvegicus, UniProt P05183).
T1 sequence (P05183 1-504): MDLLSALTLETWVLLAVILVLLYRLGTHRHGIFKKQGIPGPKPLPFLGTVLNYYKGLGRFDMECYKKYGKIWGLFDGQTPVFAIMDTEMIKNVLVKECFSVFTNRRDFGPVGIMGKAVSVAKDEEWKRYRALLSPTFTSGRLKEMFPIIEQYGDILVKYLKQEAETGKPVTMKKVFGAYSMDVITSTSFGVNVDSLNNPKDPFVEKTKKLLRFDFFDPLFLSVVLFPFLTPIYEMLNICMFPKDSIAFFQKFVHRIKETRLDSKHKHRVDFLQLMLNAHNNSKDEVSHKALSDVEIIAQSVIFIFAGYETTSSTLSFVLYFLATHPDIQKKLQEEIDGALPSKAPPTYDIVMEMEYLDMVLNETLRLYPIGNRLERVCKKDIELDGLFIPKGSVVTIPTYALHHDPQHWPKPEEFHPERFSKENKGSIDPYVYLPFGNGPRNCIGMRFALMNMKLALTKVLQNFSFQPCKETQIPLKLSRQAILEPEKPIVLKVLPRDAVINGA
The test can be described thus: midazolam probe-substrate inhibition in pooled rat liver microsomes, LC-MS/MS. The class given is biochemical. Background: Microsomes from liver hold many membrane-bound enzymes, among them those of drug oxidation.

Another test addresses T2, CYP2J3 (Rattus norvegicus, UniProt P51590).
T2 sequence (P51590 1-502): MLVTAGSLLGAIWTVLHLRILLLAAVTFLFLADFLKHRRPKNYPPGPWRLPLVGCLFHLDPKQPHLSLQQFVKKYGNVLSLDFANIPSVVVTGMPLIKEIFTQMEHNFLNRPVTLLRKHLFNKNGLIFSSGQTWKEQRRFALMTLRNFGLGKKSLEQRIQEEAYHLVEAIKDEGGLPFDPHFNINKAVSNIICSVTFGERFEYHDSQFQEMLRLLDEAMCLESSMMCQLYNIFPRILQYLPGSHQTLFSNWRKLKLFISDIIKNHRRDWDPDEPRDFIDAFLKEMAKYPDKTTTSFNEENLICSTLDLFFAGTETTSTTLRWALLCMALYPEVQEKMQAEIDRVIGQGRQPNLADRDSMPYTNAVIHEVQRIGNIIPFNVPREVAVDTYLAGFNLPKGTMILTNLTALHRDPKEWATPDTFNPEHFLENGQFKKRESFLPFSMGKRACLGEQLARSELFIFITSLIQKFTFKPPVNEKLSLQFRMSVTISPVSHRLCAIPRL
Briefly: astemizole probe-substrate inhibition in pooled rat liver microsomes, LC-MS/MS. The class given is biochemical.

SMILES strings stand for the structures.

Regarding `Cc1cccc2c3c(ccc12)C1=C(C(=O)C3=O)[C@@H](C)CO1` [dihydrotanshinone I], the results for the IC50 against CYP3A2 and on CYP2J3 were 13.8 µM and 6.39 µM, respectively.

These data come from article PMC9343791, “Evaluation of Herb–Drug Interaction Between Danshen and Rivaroxaban in Rat and Human Liver Microsomes” (Frontiers in Pharmacology, 2022).
